# Tests used:
# [1] = tested on: luciferase-transfected PANC-1 cells; test: In vivo tumor growth inhibition, orthotopic PANC-1 xenograft; parameters: species or system NOD-SCID-Gamma (NSG) mice; details: after three weeks of treatment
# Experimental: (§1) 6-8 weeks old male and female NOD-SCID-Gamma (NSG) mice were obtained from NCI and housed in the institutional animal facilities. About 1×10^6 luciferase-transfected PANC-1 cells suspended in 50 μL PBS were injected orthotopically into the pancreas of the mice. Tumors were allowed to grow for three weeks. Then, mice were randomized into four groups of ten (5 male mice and 5 female mice in each group), and 50 μg/mouse Gem, GNP-Gem with an equivalent Gem amount, or unconjugated GNPs were injected intraperitoneally three times a week for three weeks. Tumor growth was measured weekly using an IVIS bio-imager after injecting Luciferin. After three weeks of treatment, mice were sacrificed, and tumors were harvested, measured with slide calipers, and weighed. Tumor volumes were calculated using the formula: V=0.5 X a X b^2, where ‘a’ is the longest tumor axis, and ‘b’ is the shortest tumor axis.
# About, 1×10^6 luciferase transfected PANC-1 cells were orthotopically implanted in the pancreas of 6-8 weeks old NSG mice. After three weeks, mice were imaged noninvasively using the Xenogen instrument to confirm tumor growth and then randomized into four groups before the initiation of treatment. Both male and female mice were included in the experiment to delineate any differential sex-dependent therapeutic effect of GNP-Gem. The experiment was terminated after three weeks of treatment. […] FIG. 5C depicts the tumor growth curve as measured by luciferase bioluminescence for female and male mice separately or in combination.
# [2] = tested on: luciferase-transfected PANC-1 cells; test: Histological study of harvested tumors (H&E, Ki67); format: in vivo, NOD-SCID-Gamma (NSG) mice
# Experimental: as §1
# Tumors were harvested and fixed in neutral buffered 10% formalin at room temperature for 24 hours prior to embedding in paraffin and sectioning. Sections were deparaffinized and then subjected Hematoxylin and Eosin (H&E) and Ki67 staining according to manufacturer's instructions (DAB 150, Millipore). Stable diaminobenzidine was used as a chromogen substrate, and the sections were counterstained with a hematoxylin solution. Slides were digitized with Aperio AT2 slide scanner (Leica) and analyzed with imagescope software (Leica).
# [3] = tested on: AsPC-1 cells; test: In vitro cell viability assay (MTS); format: cell-based; details: AsPC-1, 1 hour treatment, MTS after 72 hours
# Experimental: About 5×10^3 cells were seeded in 96-well plates and treated with increasing doses of GNP, Gem, and GNP-Gem diluted in respective media. After a 1-hour incubation, cells were washed thrice with PBS, overlaid with 100 μL media containing serum and antibiotics, and incubated for another 72 hours. At the end of the incubation, cell viability was measured using Celltiter 96 Aqueous One Solution Cell Proliferation Assay (Promega) as per the manufacturer's protocol. Briefly, the media containing the treatments were aspirated from the plate and washed with PBS. Then, 100 μL media containing 20 μL One Solution reagent was added to each well. The plate was incubated at 37° C. for 30 minutes, and absorbance at 492 nm was measured using Spectramax i3x. Percentage viability was calculated as follows: Viability (%)=100* (ATreated−ABlank)/(AUntreated−ABlank).
# To this end, two commercially available pancreatic cancer cell lines were selected (AsPC-1 and PANC-1, obtained from ATCC). The cells were treated with increasing doses of GNP, Gem, and GNP-Gem for 1 hour. After 1 hour, cells were washed three times with PBS to remove the treatments completely in order to reduce any non-specific effect, and fresh media was added to the cells. The cell viability measurement was performed by MTS assay after 72 hours (FIG. 4A-B).
structure (smiles),measurement,setting,value
"Nc1ccn([C@@H]2O[C@H](CO)[C@@H](O)C2(F)F)c(=O)n1 [Gem, Gemcitabine]","tumor volume, mean",[1]; female and male combined,251 mm^3
same,"tumor volume, median",[1]; female and male combined,250 mm^3
same,"tumor weight, mean",[1]; female and male combined,310.86 mg
same,"tumor weight, median",[1]; female and male combined,280.35 mg
same,"tumor volume, mean",[1]; female mice,254.8 mm^3
same,"tumor volume, median",[1]; female mice,254.6 mm^3
same,"tumor weight, mean",[1]; female mice,295.9 mg
same,"tumor weight, median",[1]; female mice,272.4 mg
same,"tumor volume, mean",[1]; male mice,247.17 mm^3
same,"tumor volume, median",[1]; male mice,245.3 mm^3
same,"tumor weight, mean",[1]; male mice,325.8 mg
same,"tumor weight, median",[1]; male mice,288.3 mg
same,"percentage of Ki67-positive nuclei, mean",[2]; female and male combined,31.4%
same,"percentage of Ki67-positive nuclei, median",[2]; female and male combined,32.07%
same,"percentage of Ki67-positive nuclei, mean",[2]; female mice,31.3%
same,"percentage of Ki67-positive nuclei, median",[2]; female mice,32.3%
same,"percentage of Ki67-positive nuclei, mean",[2]; male mice,31.5%
same,"percentage of Ki67-positive nuclei, median",[2]; male mice,31.4%
same,effect on cell viability,[3],dose dependent effect

# Reference: patent US10543231B2, “Methods and materials for treating cancer” (Mayo Foundation for Medical Education and Research, priority 2017, dated 2020)
